Patent US20230074545A1, “TREATMENT OF CANCER WITH CDK12/13 INHIBITORS” (Kinnate Biopharma Inc., priority 2019, published 2023)

Assays:
Assay in all cases: Radiometric kinase panel
Type in all cases: biochemical
SIK1 = target: T1, SIK1 (Homo sapiens, UniProt P57059)
T1 construct: either as full-length or enzymatically active fragments; purchased ProQinase GmbH (Reaction Biology)
Procedure, shortened: (§1)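 Activity was measured radiometrically from [gamma-33P]-ATP incorporation into substrate. The kinases were recombinant human GST- or His-tagged proteins, full-length or active fragments, expressed in Sf9 or E. coli. Compound in 10% DMSO was added before the enzyme/substrate mix, which started the reaction.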

RET = target: T2, RET (Homo sapiens, UniProt P07949)
T2 construct: either as full-length or enzymatically active fragments; purchased ProQinase GmbH (Reaction Biology)
Procedure, shortened: as §1

MAPKAPK2 = target: T3, MAPKAPK2 (Homo sapiens, UniProt P49137)
T3 construct: either as full-length or enzymatically active fragments; purchased ProQinase GmbH (Reaction Biology); host or cells: Sf9 insect cells or E. coli
Procedure, shortened: as §1

MEK2 = target: T4, MEK2 (Homo sapiens, UniProt P36507)
T4 construct: either as full-length or enzymatically active fragments; purchased ProQinase GmbH (Reaction Biology)
Procedure, shortened: as §1

TAOK2 = target: T5, TAOK2 (Homo sapiens, UniProt Q9UL54)
T5 construct: either as full-length or enzymatically active fragments; purchased ProQinase GmbH (Reaction Biology)
Procedure, shortened: as §1

TBK1 = target: T6, TBK1 (Homo sapiens, UniProt Q9UHD2)
T6 construct: either as full-length or enzymatically active fragments; purchased ProQinase GmbH (Reaction Biology)
Procedure, shortened: as §1

PKCmu = target: T7, PKCmu (Homo sapiens, UniProt Q15139)
T7 construct: either as full-length or enzymatically active fragments; purchased ProQinase GmbH (Reaction Biology)
Procedure, shortened: as §1

GSK3alpha = target: T8, GSK3alpha (Homo sapiens, UniProt P49840)
T8 construct: either as full-length or enzymatically active fragments; purchased ProQinase GmbH (Reaction Biology)
Procedure, shortened: as §1

ALK = target: T9, ALK (Homo sapiens, UniProt Q9UM73)
T9 construct: either as full-length or enzymatically active fragments; purchased ProQinase GmbH (Reaction Biology)
Procedure, shortened: as §1

DYRK4 = target: T10, DYRK4 (Homo sapiens, UniProt Q9NR20)
T10 construct: either as full-length or enzymatically active fragments; purchased ProQinase GmbH (Reaction Biology)
Procedure, shortened: as §1

PKCbeta1 = target: T11, PKCbeta1 (Homo sapiens, UniProt P05771)
T11 construct: either as full-length or enzymatically active fragments; purchased ProQinase GmbH (Reaction Biology)
Procedure, shortened: as §1

FRK = target: T12, FRK (Homo sapiens, UniProt P42685)
T12 construct: either as full-length or enzymatically active fragments; purchased ProQinase GmbH (Reaction Biology)
Procedure, shortened: as §1

CSK = target: T13, CSK (Homo sapiens, UniProt P41240)
T13 construct: either as full-length or enzymatically active fragments; purchased ProQinase GmbH (Reaction Biology)
Procedure, shortened: as §1

RIPK5 = target: T14, RIPK5 (Homo sapiens, UniProt Q6XUX3)
T14 construct: purchased ProQinase GmbH (Reaction Biology)
Procedure, shortened: as §1

TLK2 = target: T15, TLK2 (Homo sapiens, UniProt Q86UE8)
T15 construct: either as full-length or enzymatically active fragments; purchased ProQinase GmbH (Reaction Biology)
Procedure, shortened: as §1

MAP3K11 = target: T16, MAP3K11 (Homo sapiens, UniProt Q16584)
T16 construct: either as full-length or enzymatically active fragments; purchased ProQinase GmbH (Reaction Biology)
Procedure, shortened: as §1

IKKepsilon = target: T17, IKKepsilon (Homo sapiens, UniProt Q14164)
T17 construct: either as full-length or enzymatically active fragments; purchased ProQinase GmbH (Reaction Biology)
Procedure, shortened: as §1

PKCnu = target: T18, PKCnu (Homo sapiens, UniProt O94806)
T18 construct: either as full-length or enzymatically active fragments; purchased ProQinase GmbH (Reaction Biology)
Procedure, shortened: as §1

HIPK1 = target: T19, HIPK1 (Homo sapiens, UniProt Q86Z02)
T19 construct: either as full-length or enzymatically active fragments; purchased ProQinase GmbH (Reaction Biology); host or cells: Sf9 insect cells or E. coli (not specified per kinase)
Procedure, shortened: as §1

MARK4 = target: T20, MARK4 (Homo sapiens, UniProt Q96L34)
T20 construct: purchased ProQinase GmbH (Reaction Biology)
Procedure, shortened: as §1

PRKD2 = target: T21, PRKD2 (Homo sapiens, UniProt Q9BZL6)
T21 construct: either as full-length or enzymatically active fragments; purchased ProQinase GmbH (Reaction Biology); host or cells: Sf9 insect cells or E. coli
Procedure, shortened: as §1

JNK2 = target: T22, JNK2 (Homo sapiens, UniProt P45984)
T22 construct: either as full-length or enzymatically active fragments; purchased ProQinase GmbH (Reaction Biology)
Procedure, shortened: as §1

CDK8/CycC = target: T23, CDK8/CycC (Homo sapiens, UniProt P49336)
T23 construct: either as full-length or enzymatically active fragments; purchased ProQinase GmbH (Reaction Biology)
Procedure, shortened: as §1

HIPK3 = target: T24, HIPK3 (Homo sapiens, UniProt Q9H422)
T24 construct: either as full-length or enzymatically active fragments; purchased ProQinase GmbH (Reaction Biology)
Procedure, shortened: as §1

GSG2 = target: T25, GSG2 (Homo sapiens, UniProt Q8TF76)
T25 construct: either as full-length or enzymatically active fragments; purchased ProQinase GmbH (Reaction Biology); host or cells: Sf9 insect cells or E. coli
Procedure, shortened: as §1

EPHB1 = target: T26, EPHB1 (Homo sapiens, UniProt P54762)
T26 construct: either as full-length or enzymatically active fragments; purchased ProQinase GmbH (Reaction Biology)
Procedure, shortened: as §1

MST1 = target: T27, MST1 (Homo sapiens, UniProt Q13043)
T27 construct: purchased ProQinase GmbH (Reaction Biology); host or cells: Sf9 insect cells or E. coli (not specified per kinase)
Procedure, shortened: as §1

GRK5 = target: T28, GRK5 (Homo sapiens, UniProt P34947)
T28 construct: either as full-length or enzymatically active fragments; purchased ProQinase GmbH (Reaction Biology)
Procedure, shortened: as §1

CDK4/CycD1 = target: T29, CDK4/CycD1 (Homo sapiens, UniProt P11802)
T29 construct: either as full-length or enzymatically active fragments; purchased ProQinase GmbH (Reaction Biology); host or cells: Sf9 insect cells or E. coli (not specified per kinase)
Procedure, shortened: as §1

GRK7 = target: T30, GRK7 (Homo sapiens, UniProt Q8WTQ7)
T30 construct: either as full-length or enzymatically active fragments; purchased ProQinase GmbH (Reaction Biology)
Procedure, shortened: as §1

MARK1 = target: T31, MARK1 (Homo sapiens, UniProt Q9P0L2)
T31 construct: purchased ProQinase GmbH (Reaction Biology)
Procedure, shortened: as §1

T6 sequence (Q9UHD2 whole entry, the tested form may be a part): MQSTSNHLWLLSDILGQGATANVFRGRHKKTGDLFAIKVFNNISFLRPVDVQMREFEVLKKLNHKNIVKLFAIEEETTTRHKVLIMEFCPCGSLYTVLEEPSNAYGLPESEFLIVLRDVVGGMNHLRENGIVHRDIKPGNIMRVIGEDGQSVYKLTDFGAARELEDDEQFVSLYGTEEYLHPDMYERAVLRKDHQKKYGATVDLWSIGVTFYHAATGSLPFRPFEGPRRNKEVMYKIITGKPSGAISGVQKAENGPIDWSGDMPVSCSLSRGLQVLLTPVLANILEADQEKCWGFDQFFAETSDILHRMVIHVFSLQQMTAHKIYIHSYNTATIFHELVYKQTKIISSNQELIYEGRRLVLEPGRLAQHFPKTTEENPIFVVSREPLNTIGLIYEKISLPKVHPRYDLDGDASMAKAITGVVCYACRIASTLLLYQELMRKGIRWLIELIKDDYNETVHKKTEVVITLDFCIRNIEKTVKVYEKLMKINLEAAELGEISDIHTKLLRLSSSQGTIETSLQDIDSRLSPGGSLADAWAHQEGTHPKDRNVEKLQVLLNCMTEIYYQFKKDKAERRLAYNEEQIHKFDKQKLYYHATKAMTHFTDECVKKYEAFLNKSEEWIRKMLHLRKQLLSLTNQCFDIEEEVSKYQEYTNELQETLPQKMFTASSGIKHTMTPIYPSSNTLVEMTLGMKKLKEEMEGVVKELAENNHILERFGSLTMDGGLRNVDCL
T17 sequence (Q14164 whole entry, the tested form may be a part): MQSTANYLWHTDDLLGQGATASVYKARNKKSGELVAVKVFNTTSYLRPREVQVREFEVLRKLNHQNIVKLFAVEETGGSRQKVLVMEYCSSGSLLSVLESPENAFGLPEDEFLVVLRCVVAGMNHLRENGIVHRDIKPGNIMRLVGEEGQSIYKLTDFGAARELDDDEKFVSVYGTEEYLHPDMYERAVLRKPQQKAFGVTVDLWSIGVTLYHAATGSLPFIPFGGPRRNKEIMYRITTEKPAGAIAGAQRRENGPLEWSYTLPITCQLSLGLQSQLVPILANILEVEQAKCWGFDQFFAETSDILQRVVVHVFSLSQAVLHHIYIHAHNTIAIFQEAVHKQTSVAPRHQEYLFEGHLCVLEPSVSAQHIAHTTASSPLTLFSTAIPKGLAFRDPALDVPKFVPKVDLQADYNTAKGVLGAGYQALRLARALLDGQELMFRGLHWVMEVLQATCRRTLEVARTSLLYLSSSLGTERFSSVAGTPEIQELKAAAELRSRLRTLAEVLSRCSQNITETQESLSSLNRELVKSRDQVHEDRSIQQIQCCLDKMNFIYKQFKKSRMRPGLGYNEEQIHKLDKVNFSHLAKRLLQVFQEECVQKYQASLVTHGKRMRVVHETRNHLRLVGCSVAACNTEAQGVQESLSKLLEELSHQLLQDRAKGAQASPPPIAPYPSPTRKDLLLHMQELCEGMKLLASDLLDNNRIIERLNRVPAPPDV
T26 sequence (P54762 18-984): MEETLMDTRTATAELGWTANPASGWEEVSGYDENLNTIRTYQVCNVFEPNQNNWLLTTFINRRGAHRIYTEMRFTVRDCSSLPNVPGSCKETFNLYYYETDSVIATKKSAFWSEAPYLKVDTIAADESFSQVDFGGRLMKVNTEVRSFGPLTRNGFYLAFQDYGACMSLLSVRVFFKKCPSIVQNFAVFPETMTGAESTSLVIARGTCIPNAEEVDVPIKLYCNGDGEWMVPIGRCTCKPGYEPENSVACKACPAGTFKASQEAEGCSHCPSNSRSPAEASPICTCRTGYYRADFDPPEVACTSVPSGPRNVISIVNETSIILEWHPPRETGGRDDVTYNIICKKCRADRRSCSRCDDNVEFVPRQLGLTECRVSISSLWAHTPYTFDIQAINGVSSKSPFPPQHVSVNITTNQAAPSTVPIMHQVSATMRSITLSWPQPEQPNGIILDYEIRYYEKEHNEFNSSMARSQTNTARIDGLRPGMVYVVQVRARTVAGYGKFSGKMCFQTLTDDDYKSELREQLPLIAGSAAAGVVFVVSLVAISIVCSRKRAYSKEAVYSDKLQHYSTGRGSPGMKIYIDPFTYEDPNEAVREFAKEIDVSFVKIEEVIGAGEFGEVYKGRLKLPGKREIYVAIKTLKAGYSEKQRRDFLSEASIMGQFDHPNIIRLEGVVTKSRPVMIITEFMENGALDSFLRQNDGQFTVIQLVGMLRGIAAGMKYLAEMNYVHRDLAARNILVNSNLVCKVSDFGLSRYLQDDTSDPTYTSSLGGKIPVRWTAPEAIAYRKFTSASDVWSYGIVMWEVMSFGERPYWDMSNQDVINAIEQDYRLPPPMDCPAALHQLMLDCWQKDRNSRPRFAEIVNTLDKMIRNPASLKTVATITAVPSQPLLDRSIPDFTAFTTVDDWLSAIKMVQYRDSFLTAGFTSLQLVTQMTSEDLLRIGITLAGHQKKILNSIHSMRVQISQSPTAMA
T15 sequence (Q86UE8 whole entry, the tested form may be a part): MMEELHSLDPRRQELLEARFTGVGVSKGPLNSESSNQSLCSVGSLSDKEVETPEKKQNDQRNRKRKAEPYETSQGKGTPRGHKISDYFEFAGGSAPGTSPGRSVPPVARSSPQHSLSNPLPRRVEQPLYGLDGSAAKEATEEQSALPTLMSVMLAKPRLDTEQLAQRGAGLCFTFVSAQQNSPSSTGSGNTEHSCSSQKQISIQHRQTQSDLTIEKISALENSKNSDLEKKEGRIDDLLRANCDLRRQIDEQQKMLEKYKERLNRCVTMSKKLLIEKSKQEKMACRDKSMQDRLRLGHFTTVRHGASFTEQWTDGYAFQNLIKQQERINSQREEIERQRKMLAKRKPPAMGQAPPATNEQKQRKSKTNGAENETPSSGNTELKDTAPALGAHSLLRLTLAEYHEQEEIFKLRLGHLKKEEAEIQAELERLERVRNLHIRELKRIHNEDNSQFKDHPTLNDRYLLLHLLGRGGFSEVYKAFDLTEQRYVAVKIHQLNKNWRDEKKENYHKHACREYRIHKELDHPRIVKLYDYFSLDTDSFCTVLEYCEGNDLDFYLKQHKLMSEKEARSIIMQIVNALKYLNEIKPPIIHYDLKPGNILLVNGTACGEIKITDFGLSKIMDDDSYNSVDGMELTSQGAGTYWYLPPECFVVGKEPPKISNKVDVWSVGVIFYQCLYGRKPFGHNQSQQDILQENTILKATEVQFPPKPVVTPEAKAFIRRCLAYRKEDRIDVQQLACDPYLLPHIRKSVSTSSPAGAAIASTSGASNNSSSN
T24 sequence (Q9H422 whole entry, the tested form may be a part): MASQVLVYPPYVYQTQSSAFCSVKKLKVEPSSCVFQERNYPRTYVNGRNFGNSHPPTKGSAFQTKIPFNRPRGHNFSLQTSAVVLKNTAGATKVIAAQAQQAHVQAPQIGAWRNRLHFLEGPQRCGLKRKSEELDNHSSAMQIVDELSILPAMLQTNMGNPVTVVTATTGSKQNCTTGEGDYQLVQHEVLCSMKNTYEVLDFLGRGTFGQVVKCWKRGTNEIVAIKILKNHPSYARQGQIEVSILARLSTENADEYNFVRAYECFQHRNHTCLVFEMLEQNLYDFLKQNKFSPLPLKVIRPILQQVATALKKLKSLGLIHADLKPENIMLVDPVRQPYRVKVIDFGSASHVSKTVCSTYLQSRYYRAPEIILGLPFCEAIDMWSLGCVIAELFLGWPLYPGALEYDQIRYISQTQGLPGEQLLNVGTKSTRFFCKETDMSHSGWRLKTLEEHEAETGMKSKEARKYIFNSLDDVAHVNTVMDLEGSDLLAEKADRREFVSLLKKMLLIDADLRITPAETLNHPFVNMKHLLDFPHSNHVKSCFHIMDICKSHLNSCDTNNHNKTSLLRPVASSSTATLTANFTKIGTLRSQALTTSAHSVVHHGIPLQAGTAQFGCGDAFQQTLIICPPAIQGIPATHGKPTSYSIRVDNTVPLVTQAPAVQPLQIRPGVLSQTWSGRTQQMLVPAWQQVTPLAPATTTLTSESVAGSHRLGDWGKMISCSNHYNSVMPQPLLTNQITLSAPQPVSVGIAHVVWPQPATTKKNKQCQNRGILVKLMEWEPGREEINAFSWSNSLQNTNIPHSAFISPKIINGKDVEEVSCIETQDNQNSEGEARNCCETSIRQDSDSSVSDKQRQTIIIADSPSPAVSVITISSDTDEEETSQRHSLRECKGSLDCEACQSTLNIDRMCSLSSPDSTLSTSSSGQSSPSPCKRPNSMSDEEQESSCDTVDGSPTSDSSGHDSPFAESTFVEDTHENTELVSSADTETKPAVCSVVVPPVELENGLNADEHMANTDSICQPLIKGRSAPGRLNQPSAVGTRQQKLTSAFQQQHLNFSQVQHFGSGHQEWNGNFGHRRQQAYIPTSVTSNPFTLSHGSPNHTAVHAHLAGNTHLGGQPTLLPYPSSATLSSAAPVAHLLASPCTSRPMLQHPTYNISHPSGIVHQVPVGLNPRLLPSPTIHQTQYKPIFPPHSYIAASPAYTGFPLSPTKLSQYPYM
T11 sequence (P05771 whole entry, the tested form may be a part): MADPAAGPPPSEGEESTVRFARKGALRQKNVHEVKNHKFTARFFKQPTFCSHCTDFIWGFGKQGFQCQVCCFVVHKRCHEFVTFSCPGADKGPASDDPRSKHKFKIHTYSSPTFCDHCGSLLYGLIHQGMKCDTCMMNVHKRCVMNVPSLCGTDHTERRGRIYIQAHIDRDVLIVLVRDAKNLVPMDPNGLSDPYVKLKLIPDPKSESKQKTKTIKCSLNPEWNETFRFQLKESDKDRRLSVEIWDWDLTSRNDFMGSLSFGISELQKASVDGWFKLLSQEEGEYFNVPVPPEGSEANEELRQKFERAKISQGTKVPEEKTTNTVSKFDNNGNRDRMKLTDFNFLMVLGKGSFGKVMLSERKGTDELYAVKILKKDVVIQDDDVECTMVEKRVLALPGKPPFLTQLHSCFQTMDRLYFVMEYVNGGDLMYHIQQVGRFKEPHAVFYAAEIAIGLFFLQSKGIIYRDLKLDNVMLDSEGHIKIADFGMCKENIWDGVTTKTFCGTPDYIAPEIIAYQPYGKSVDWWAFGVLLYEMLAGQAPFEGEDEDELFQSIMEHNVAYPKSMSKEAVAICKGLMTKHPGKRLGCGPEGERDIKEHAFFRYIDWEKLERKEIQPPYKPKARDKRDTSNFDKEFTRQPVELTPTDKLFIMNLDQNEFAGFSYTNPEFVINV

## C=CC(=O)Nc1ccc(C(=O)N2CC[C@@H](Nc3ncc(C#N)cn3)C2)cc1 [Compound 4, (R)-N-(4-(3-((5-cyanopyrimidin-2-yl)amino)pyrrolidine-1-carbonyl)phenyl)acrylamide]
SIK1
  inhibition at 1 µM: 7%
RET
  inhibition at 1 µM: 5%
MAPKAPK2
  inhibition at 1 µM: -24%
MEK2
  inhibition at 1 µM: 3%
TAOK2
  inhibition at 1 µM: 5%
TBK1
  inhibition at 1 µM: -4%
PKCmu
  inhibition at 1 µM: 3%
GSK3alpha
  inhibition at 1 µM: 6%
ALK
  inhibition at 1 µM: 8%
DYRK4
  inhibition at 1 µM: -7%
PKCbeta1
  inhibition at 1 µM: 4%
FRK
  inhibition at 1 µM: -6%
CSK
  inhibition at 1 µM: 7%
RIPK5
  inhibition at 1 µM: 0%
TLK2
  inhibition at 1 µM: -10%
MAP3K11
  inhibition at 1 µM: -7%
IKKepsilon
  inhibition at 1 µM: 7%
PKCnu
  inhibition at 1 µM: 4%
HIPK1
  inhibition at 1 µM: 8%
MARK4
  inhibition at 1 µM: -1%
PRKD2
  inhibition at 1 µM: 12%
JNK2
  inhibition at 1 µM: 6%
CDK8/CycC
  inhibition at 1 µM: 3%
HIPK3
  inhibition at 1 µM: -7%
GSG2
  inhibition at 1 µM: 13%
EPHB1
  inhibition at 1 µM: -3%
MST1
  inhibition at 1 µM: 1%
GRK5
  inhibition at 1 µM: -6%
CDK4/CycD1
  inhibition at 1 µM: 9%
GRK7
  inhibition at 1 µM: -5%
MARK1
  inhibition at 1 µM: 0%
